Patent US20110104159A1, “COMPOSITIONS AND METHODS FOR TREATING, CONTROLLING, REDUCING, AMELIORATING, OR PREVENTING ALLERGY” (priority 2006, published 2011)
Where “and” joins values, the source holds several entries; their conditions need not be identical. Equal values may be shown once.

Experiments:
[1] = test system: rabbit paracentesis model; assay: Pupillary diameter measurement, rabbit paracentesis model; format: in vivo; conditions: for Pupillary diameter T2: −5 min: 5 min before first paracentesis; for Pupillary diameter T2: −5 min / Pupillary diameter T3: +115 min / Pupillary diameter Δ(T3 − T1) / Pupillary diameter T1: −180 min: individual eye, listed as BOL; for Pupillary diameter T3: +115 min: 5 min before second paracentesis; for Pupillary diameter Δ(T3 − T1): +115 min minus −180 min; for Pupillary diameter T1: −180 min: basal; for Mean (mm) Δ(T3 − T1) of pupillary diameter: group mean, n=8 eyes
Procedure: (§1) Each rabbit was placed in a restraint device and tagged with the alphanumeric code. The formulations were instilled (50 μl) into the conjunctival sac of both eyes 180, 120, 90 and 30 min before the first paracentesis; then 15, 30, 90 min after the first paracentesis. To perform the first paracentesis the animals were anaesthetized by intravenous injection of 5 mg/kg Zoletil® (Virbac; 2.5 mg/kg tiletamine HCl and 2.5 mg/kg zolazepam HCl) and one drop of local anesthetic (Novesina®, Novartis) was administered to the eye. Anterior chamber paracentesis was performed with a 26 G needle attached to a tuberculin syringe; the needle was introduced into the anterior chamber through the cornea, taking care not to damage the tissues. Two hours after the first paracentesis, the animals were sacrificed with 0.4 ml Tanax® (Intervet International B.V.) and the second paracentesis was performed. About 100 μl of aqueous humor were removed at the second paracentesis. Aqueous humor was immediately split in four aliquots and stored at −80° C. until analysis. Then both eyes were enucleated and the iris-ciliary body was carefully excised, placed in polypropylene tubes, and stored at −80° C. until analysis.
The pupillary diameter of both eyes was measured with a Castroviejo caliper 180 min and 5 min before the first paracentesis and 5 min before the second paracentesis.

[2] = test system: leukocytes (PMN); assay: Leukocytes (PMN) measurement in aqueous humor; format: in vivo, Rabbit; conditions: for PMN in aqueous humor at the second paracentesis, Mean: group mean; for PMN in aqueous humor at the second paracentesis: individual eye sample, listed as BOL
Procedure: as §1
For the determination of the number of leukocytes we used a haemocytometer (Improved Neubauer Chamber; Brigth-line, Hausser Scientific) and a Polyvar 2 microscope (Reichert-Jung).

[3] = test system: caspase-3; assay: Caspase-3 activation in human eosinophils (Western blotting); format: cell-based; conditions: 24 h, 0.1% FBS; BOL-303242-X 1-1000 nM, dexamethasone 1000 nM
Procedure: Human eosinophils were pelleted and resuspended in 100 μl of CER I buffer (NE-PER™ Extraction reagent; Pierce). After 10 min incubation on ice, 5.5 μl of CER II buffer was added and the suspension was resuspended by vortexing, incubated on ice for 1 min and resuspended. The cytoplasmic fraction was separated by centrifugation at 16,000 g for 5 min. The protein content was quantified using a BCA protein assay (Pierce). The proteins of the cytoplasmic extract (50 μg) were denatured at 95° C. for 3 min, then loaded and separated by 15% sodium dodecyl sulfate-polyacrylamide gel electrophoresis (SDS-PAGE). We used MagicMark™ XP Western Standard as a molecular weight standard.
Proteins were transferred to Protran™ nitrocellulose membranes, which were blocked with 5% non-fat milk in TBS (10 mM Tris-HCl, pH 8, containing 150 mM NaCl) plus 0.1% Tween 20 for 1 h at room temperature (25° C.). The blots were probed overnight at 4° C. in TBS containing 0.1% Tween 20, 5% non-fat milk and antibodies with dilutions of 1:1000 for caspase-3 monoclonal antibody or 1:5000 for β-actin antibody (used as a loading control for cytoplasmic cell lysates). The former detects endogenous levels of procaspase-3 (around 32 kDa; p32) and its large subunit cleavage product of approximately 17 kDa (p17). The membranes were incubated with peroxidase-conjugated secondary antibodies at a dilution of 1:8000. […]

[4] = test system: annexin I; assay: Annexin I surface expression in human eosinophils (FACS), transactivation marker; format: cell-based; conditions: 10 000 nM
Procedure: FACS was performed to measure cell surface expression of annexin I and CXCR4 as indicators of glucocorticoid-mediated transactivation. Human eosinophils were double-stained with a red dye-conjugated secondary antibody to trace changes in the expression of CXCR4 or I, and a green dye-conjugated annexin V to exclude apoptotic cells from the analysis. The cells were counted and transferred to a 24-well plate (10^6 cells/well) and serum-starved (0.1% FBS) for 24 h.
At the end of the incubation, the cells were harvested and each sample was divided into two tubes to run parallel tests for annexin I and CXCR4 surface expression. After rinsing all samples with a HBSS solution containing 1% BSA, the cells were incubated for 45 min on a shaker with anti-annexin I or anti-CXCR4 antibodies (1:200) on ice; the negative control was incubated with an isotype-specific control antibody.
The cells were then washed twice with HBSS/BSA buffer before exposure to the Alexa Fluor® 568-conjugated secondary antibody. The excess of unbound antibody was washed away, and all samples were incubated for 15 min in the presence of annexin V-Fluos. […] Electronic gates were set on annexin V-negative cells and CXCR4 or annexin I-positive cells. Data from 10,000 cells/sample were analyzed using dedicated software (Becton, Dickinson and Company). The % of CXCR4 or annexin I positive cells was calculated.

[5] = test system: ovalbumin-sensitized guinea pigs; assay: Active anaphylaxis in the guinea pig: conjunctival symptoms after OVA challenge; format: in vivo; conditions: 0.4% eye drops, 30 μl/eye 45 min before OVA
Procedure: Male Dunkin-Hartley guinea pigs (250-300 g) were purchased from Charles River (Calco, Italy). Animal procedures followed the guidelines of the University of Bologna Animal Care and Use Committee and conformed to the Association for Research in Vision and Ophthalmology (ARVO) resolution on the use of animals in research.
Male Dunkin-Hartley guinea pigs were actively immunized by i.p. injection of 200 μg OVA in 2 ml saline with 40 mg aluminum hydroxide (positive control) or saline alone (negative control), as previously reported. […] Negative controls received saline alone.
Conjunctival clinical symptoms were rated blind on both eyes using the following scale: 0, no symptoms; 1, slight conjunctival redness with or without tears; 2, mild conjunctival redness with tears and mild chemosis; 3, mild conjunctival redness with tears and moderate chemosis; 4, severe conjunctival redness with tears and partial lid eversion; 5, severe conjunctival redness with tears and lids more than half closed. The animals were euthanized 24 h after OVA challenge by i.p. injection of Tanax® (3 ml/kg; Hoechst AG, Frankfurt-am-Main, Germany) and the conjunctivas were carefully excised and each was divided into two samples for subsequent investigations. […] The number of eosinophils in each field was counted under light microscopy (×500 magnification). In the other sample eosinophil peroxidase activity was measured.

Cc1ccc2c(NC[C@](O)(CC(C)(C)c3cc(F)cc4c3OCC4)C(F)(F)F)cccc2n1 [BOL-303242-X, (R)-1,1,1-Trifluoro-4-(5-fluoro-2,3-dihydrobenzofuran-7-yl)-4-methyl-2-{[(2-methyl-5-quinolyl)amino]methyl}pentan-2-ol]
Pupillary diameter T2: −5 min ([1]; 0.1% topical): 6.5 mm (3×) and 7.0 mm (4×) and 7.5 mm | Pupillary diameter T3: +115 min ([1]; 0.1% topical): 5.0 mm (2×) and 6.0 mm (3×) and 6.5 mm and 5.5 mm (2×) | Pupillary diameter Δ(T3 − T1) ([1]; 0.1% topical): −1.5 mm (4×) and −0.5 mm (2×) and −1.0 mm (2×) | Pupillary diameter T1: −180 min ([1]; 0.1% topical): 6.5 mm (4×) and 7.0 mm (3×) and 7.5 mm | Pupillary diameter T2: −5 min ([1]; 0.5% topical): 8.0 mm (3×) and 7.0 mm (4×) and 7.5 mm | Pupillary diameter T3: +115 min ([1]; 0.5% topical): 6.5 mm (4×) and 6.0 mm (2×) and 7.0 mm (2×) | Pupillary diameter Δ(T3 − T1) ([1]; 0.5% topical): −1.5 mm (2×) and −0.5 mm (2×) and −1.0 mm (4×) | Pupillary diameter T1: −180 min ([1]; 0.5% topical): 8.0 mm (3×) and 7.0 mm (3×) and 7.5 mm (2×) | Mean (mm) Δ(T3 − T1) of pupillary diameter ([1]; 0.5% topical): −1.0 mm | Pupillary diameter T2: −5 min ([1]; 1% topical): 6.0 mm (2×) and 6.5 mm (4×) and 7.0 mm (2×) | Pupillary diameter T3: +115 min ([1]; 1% topical): 5.5 mm (2×) and 5.0 mm (4×) and 6.0 mm (2×) | Pupillary diameter Δ(T3 − T1) ([1]; 1% topical): −0.5 mm (3×) and −1.5 mm (2×) and −1.0 mm (3×) | Pupillary diameter T1: −180 min ([1]; 1% topical): 6.0 mm (3×) and 6.5 mm (5×) | Mean (mm) Δ(T3 − T1) of pupillary diameter ([1]; 1% topical): −0.9 mm | PMN in aqueous humor at the second paracentesis, Mean ([2]; 0.1% topical): 28.333 number/μl | PMN in aqueous humor at the second paracentesis ([2]; 0.1% topical): 20 number/μl (4×) and 40 number/μl and 50 number/μl | PMN in aqueous humor at the second paracentesis, Mean ([2]; 0.5% topical): 21.250 number/μl | PMN in aqueous humor at the second paracentesis ([2]; 0.5% topical): 40 number/μl (2×) and 20 number/μl (3×) and 10 number/μl (3×) | PMN in aqueous humor at the second paracentesis, Mean ([2]; 1% topical): 28.750 number/μl | PMN in aqueous humor at the second paracentesis ([2]; 1% topical): 30 number/μl (3×) and 20 number/μl (3×) and 40 number/μl (2×) | Caspase-3 p17 subunit level (Western blot) [3]: marked, concentration-dependent increase of the p17 subunit | Induction of annexin I expression on the eosinophil cell surface [4]: partially effective only at the highest concentration | Conjunctival symptoms (swelling of the eyelids and chemosis), early phase ([5]; 1 h after challenge): significantly reduced | Severity of conjunctival symptoms, late phase ([5]; 6 h after challenge): significant reduction in the severity of conjunctival symptoms
